Here are results for three molecules from patent publication US9630962B2, “4-amino-6-(2,6-dichlorophenyl)-2-(phenylamino)-pyrido[2,3-d]pyrimidin-7(8H)-one derivatives, synthesis and uses thereof” (INSTITUT QUÍMIC DE SARRIÁ, CETS FUNDACIÓ PRIVADA, priority 2013, dated 2017).

Like-named read-outs stand apart in the source and are kept apart here.

What is called remaining activity is the signal under treatment as a percentage of the control signal. Higher therefore signals much activity left.

One data set addresses T1, BTK (Homo sapiens, UniProt Q06187).
T1 construct: purchased ProQinase; host or cells: Sf9 insect cells or E. coli (not specified per kinase)
Kind of data set: Radiometric protein kinase assay (33PanQinase Activity Assay), residual activity. It is filed as biochemical. To be noted: 10 μM (1×10^−05 M) test compound, singlicate. On the procedure: (§1) The kinase inhibition profile of compounds of formula (I) was evaluated at Proqinase (http://www.proqinase.conn) by measuring residual activity values at a concentration of 10 μM of the test compound in singlicate in front of the following kinases: BTK, LYN, SYK aa1-635 using the following protocol:
(§2) The compounds were dissolved to 1×10^−03 M stock solutions in 100% DMSO. Subsequently, 100 μl of each stock solution were transferred into wells A3-F12 of a microtiter plate (“master plate”). Wells A1-F2 were filled with 100 μl 100% DMSO as controls. 5×10 μl of the master plate were aliquoted into 5 copy plates, which were stored at −20° Celsius until use. For the testing of each group of up to 8 kinases, one copy plate was used.
(§3) In the process, 90 μl H2O were added to each well of a copy plate. To minimize precipitation, the H2O was added to each well only a few minutes before the transfer of the compound solutions into the assay plates. The plate was shaken thoroughly, resulting in a “compound dilution plate” with a compound concentration of 1×10^−04 M/10% DMSO. This plate was used for the transfer of 5 μl compound solution into the assay plates. The final volume of the assay was 50 μl. All compounds were tested at 1×10^−05 M in singlicate. The final DMSO concentration in the reaction cocktails was 1% in all cases. The compound dilution plates were disposed at the end of each working day.
(§4) A radiometric protein kinase assay (^33PanQinase® Activity Assay) was used for measuring the kinase activity of the corresponding protein kinases. All kinase assays were performed in 96-well FlashPlates™ from Perkin Elmer (Boston, Mass., USA) in a 50 μl reaction volume. The reaction cocktail was pipetted in 4 steps in the following order: • 10 μl of non-radioactive ATP solution (in H2O) • 25 μl of assay buffer/[γ-33P]-ATP mixture • 5 μl of test sample in 10% DMSO • 10 μl of enzyme/substrate mixture
(§5) The protein kinase reaction cocktails were incubated at 30° C. for 60 minutes. The reaction was stopped with 50 μl of 2% (v/v) H3PO4, plates were aspirated and washed two times with 200 μl 0.9% (w/v) NaCl. All assays were performed with a BeckmanCoulter Biomek 2000/SL robotic system. Incorporation of ^33Pi (counting of “cpm”) was determined with a microplate scintillation counter (Microbeta, Wallac).
(§6) All protein kinases provided by ProQinase were expressed in Sf9 insect cells or in E. coli as recombinant GST-fusion proteins or His-tagged proteins. All kinases were produced from human cDNAs and purified by either GSH-affinity chromatography or immobilized metal. Affinity tags were removed from a number of kinases during purification. The purity of the protein kinases was examined by SDS-PAGE/Coomassie staining, the identity was checked by mass spectroscopy.
(§7) For each kinase, the median value of the cpm of six wells of column 1 of each assay plate was defined as “low control” (n=6). This value reflects unspecific binding of radioactivity to the plate in the absence of a protein kinase but in the presence of the substrate. Additionally, for each kinase the median value of the cpm of six wells of column 2 of each assay plate was taken as the “high control”, i.e. full activity in the absence of any inhibitor (n=6). The difference between high and low control of each enzyme was taken as 100% activity.
(§8) As part of the data evaluation the low control of each kinase was subtracted from the high control value as well as from their corresponding “compound values”. The residual activity (in %) for each compound well was calculated by using the following formula: Res. Activity (%)=100×[(signal of compound −low control)/(high control −low control)] Results
(§9) The singlicate residual activity values of the tested compounds at one concentration (1×10^−05 M) in singlicate in the required protein kinase assays are given.

The next data set addresses T2, SYK aa1-635 (Homo sapiens, UniProt P43405).
T2 construct: BTK, LYN, SYK aa1-635; purchased ProQinase; host or cells: Sf9 insect cells or E. coli (not specified per kinase)
The description is as above. The class given is biochemical. To be noted: 10 μM (1×10^−05 M) test compound, singlicate. The protocol:
as §1, §2, §3, §4, §5, §6, §7, §8, §9

The target of another data set is T3, LYN (Homo sapiens, UniProt P07948).
T3 construct: purchased ProQinase; host or cells: Sf9 insect cells or E. coli (not specified per kinase)
The data set is described as above. Conditions: 10 μM (1×10^−05 M) test compound, singlicate. It is filed as biochemical. On the procedure:
as §1, §2, §3, §4, §5, §6, §7, §8, §9

Data set [1] has as its system relapsed/refractory non-Hodgkin's lymphoma and CLL. To be noted: cited from earlier work.

T3 sequence (P07948 whole entry): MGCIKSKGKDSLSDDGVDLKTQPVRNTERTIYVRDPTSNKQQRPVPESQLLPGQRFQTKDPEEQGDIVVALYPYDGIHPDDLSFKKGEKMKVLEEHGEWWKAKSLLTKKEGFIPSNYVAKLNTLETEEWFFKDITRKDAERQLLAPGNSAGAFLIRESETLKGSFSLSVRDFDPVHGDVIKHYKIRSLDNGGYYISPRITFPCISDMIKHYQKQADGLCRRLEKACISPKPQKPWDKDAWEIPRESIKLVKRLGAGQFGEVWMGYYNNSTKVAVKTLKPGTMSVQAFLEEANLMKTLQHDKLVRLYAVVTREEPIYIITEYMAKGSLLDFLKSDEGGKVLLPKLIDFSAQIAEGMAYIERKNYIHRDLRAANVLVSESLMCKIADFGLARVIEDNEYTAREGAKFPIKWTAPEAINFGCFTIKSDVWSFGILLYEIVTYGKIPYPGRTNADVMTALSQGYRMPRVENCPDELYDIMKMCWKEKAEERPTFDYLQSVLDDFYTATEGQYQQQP
T1 sequence (Q06187 whole entry): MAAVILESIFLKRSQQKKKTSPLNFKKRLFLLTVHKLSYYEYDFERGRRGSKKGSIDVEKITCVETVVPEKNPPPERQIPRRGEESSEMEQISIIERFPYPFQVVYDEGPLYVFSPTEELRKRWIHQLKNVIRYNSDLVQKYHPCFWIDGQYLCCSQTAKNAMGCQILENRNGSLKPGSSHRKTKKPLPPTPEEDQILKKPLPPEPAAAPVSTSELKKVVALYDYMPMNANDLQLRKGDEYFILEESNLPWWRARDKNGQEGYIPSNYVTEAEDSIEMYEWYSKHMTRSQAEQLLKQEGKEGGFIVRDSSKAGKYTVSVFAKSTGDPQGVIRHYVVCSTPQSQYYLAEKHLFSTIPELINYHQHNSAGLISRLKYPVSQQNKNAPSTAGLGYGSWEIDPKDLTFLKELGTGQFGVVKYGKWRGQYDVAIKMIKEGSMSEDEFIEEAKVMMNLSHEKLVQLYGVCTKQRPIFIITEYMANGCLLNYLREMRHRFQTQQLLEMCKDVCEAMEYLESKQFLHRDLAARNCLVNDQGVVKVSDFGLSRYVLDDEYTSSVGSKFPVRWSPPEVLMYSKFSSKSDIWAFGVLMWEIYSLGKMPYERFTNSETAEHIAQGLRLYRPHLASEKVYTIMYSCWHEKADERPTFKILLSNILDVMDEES

For `Cn1c(=O)c(-c2c(Cl)cccc2Cl)cc2c(N)nc(Nc3ccc(NCCN4CCOCC4)cc3)nc21` [Example 6, 4-amino-6-(2,6-dichlorophenyl)-8-methyl-2-(4-(2-morpholinoethylamino)-phenylamino)-pyrido[2,3-d]pyrimidin-7(8H)-one], the results for the remaining activity at 10 µM at BTK, at SYK aa1-635 and at LYN were 10%, 31% and 0%, respectively.

Turning to `COc1cc(Nc2ncc(F)c(Nc3ccc4c(n3)N(COP(=O)(O)O)C(=O)C(C)(C)O4)n2)cc(OC)c1OC` [fostamatinib], the results for the response rate in data set [1] (DLBCL patients), in data set [1] (FL patients) and in data set [1] (MCL patients) were 22%, 10% and 11%, respectively. For the same molecule, the “partial response (PR)” value in data set [1] (patients with CLL (6 of 11)) is 55%. The dose-limiting toxicity entry in data set [1] (phase 1/2 study) is “diarrhea, neutropenia, and thrombocytopenia”.

With `Cn1c(=O)c(-c2c(Cl)cccc2Cl)cc2c(N)nc(Nc3ccc(OCCN4CCOCC4)cc3)nc21` [Example 7, 4-amino-6-(2,6-dichlorophenyl)-8-methyl-2-(4-(2-morpholinoethoxy)-phenylamino)-pyrido[2,3-d]pyrimidin-7(8H)-one], the remaining activity at 10 µM is 16% on BTK, 44% at SYK aa1-635 and 0% on LYN.
